Source: ChEMBL document CHEMBL2401615, “Peptide backbone replacement of hepatitis C virus NS3 serine protease C-terminal cleavage product analogs: discovery of potent succinamide inhibitors” (Bioorg Med Chem Lett, 2013)
Values after ≈ are worked out from the molar mass of the structure shown.

Columns and labels:
[1] = Half life in dog liver microsomes; assay type: ADME, Canis lupus familiaris, Microsome
[2] = Half life in monkey liver microsomes; assay type: ADME, Macaca mulatta, Microsome; conditions: rhesus monkey
[3] = Half life in human liver microsomes; assay type: ADME, Microsome
[4] = Half life in rat liver microsomes; assay type: ADME, Microsome
[5] = Permeability across basolateral to apical side in human Caco2 cells; assay type: ADME, cell-based; conditions: Caco-2, read-out: permeability
[6] = Permeability across apical to basolateral side in human Caco2 cells; assay type: ADME, cell-based; conditions: Caco-2, read-out: permeability
[7] = Inhibition of Hepatitis C virus NS3 protease; parameters: species or system Hepacivirus hominis
Hepatitis C virus [8] = experiment: Antiviral activity against Hepatitis C virus; assay type: functional, organism-based, Hepacivirus hominis
[9] = Solubility of the compound at pH 7.2; assay type: physicochemical; conditions: buffer
Hepatitis C virus [10] = experiment: Antiviral activity against Hepatitis C virus genotype 1b infected in human Huh-9-13 cells by replicon assay; assay type: functional, organism-based, Hepacivirus hominis
[11] = Plasma concentration in rat at 5 mg/kg measured at 1 hr; assay type: ADME, organism-based; parameters: dose 5 mg/kg
[12] = Bioavailability in rat at 2 mg/kg, […]; assay type: ADME, organism-based; conditions: in vivo
[13] = Volume of distribution at steady state in rat at 2 mg/kg, iv; assay type: ADME, organism-based; parameters: dose 2 mg/kg, route intravenous; conditions: in vivo, read-out: Vdss
[14] = Clearance in rat at 2 mg/kg, iv; assay type: ADME, organism-based; parameters: dose 2 mg/kg, route intravenous; conditions: in vivo
[15] = Half life in rat at 2 mg/kg, iv; assay type: ADME, organism-based; parameters: dose 2 mg/kg, route intravenous; conditions: in vivo
Rattus norvegicus [16] = experiment: Cmax in rat at 5 mg/kg, po; assay type: ADME, organism-based; parameters: dose 5 mg/kg, route oral; conditions: in vivo
Rattus norvegicus [17] = experiment: AUC (0 to infinity) in rat at 5 mg/kg, po; assay type: ADME, organism-based, Plasma; parameters: time infinity, dose 5 mg/kg, route oral; conditions: in vivo

half-life [3]	Papp A→B [6]	IC50 [7]	EC50 (Hepatitis C virus [8])	SMILES	other results
> 5 h	17 ×10⁻⁶ cm/s	8.9 nM	6.8 nM	C=C[C@@H]1C[C@]1(NC(=O)[C@@H]1C[C@@H](Oc2cc(-c3csc(NC(C)C)n3)nc3c(Br)c(OC)ccc23)CN1C(=O)[C@@H](NC(=O)OC1CCCC1)C(C)(C)C)C(=O)O	half-life [1]: > 5 h; half-life [2]: 3.17 h; half-life [4]: 3.5 h; Papp B→A [5]: 2 ×10⁻⁶ cm/s
1.58 h	3 ×10⁻⁶ cm/s	0.9 nM	69 nM	C=C[C@@H]1C[C@]1(NC(=O)[C@@H]1C[C@@H](Oc2cc(OCC)nc3c(Cl)cccc23)CN1C(=O)[C@@H](CC(=O)NC(C)(C)C)C(C)(C)C)C(=O)NS(=O)(=O)C1CC1	solubility [9]: 144 mg/mL (≈ 189 mM)
				C=C[C@@H]1C[C@]1(NC(=O)[C@@H]1C[C@@H](Oc2cc(-c3ccccc3)nc3cc(OC)ccc23)CN1C(=O)[C@@H](CC(=O)N1CCCCC1)C(C)(C)C)C(=O)NS(=O)(=O)C1CC1 [SOVAPREVIR]	EC50 (Hepatitis C virus [10]): 11 nM
1.52 h	2.4 ×10⁻⁶ cm/s	0.4 nM	2.5 nM	C=C[C@@H]1C[C@]1(NC(=O)[C@@H]1C[C@@H](Oc2cc(OCC)nc3c(Br)c(OC)ccc23)CN1C(=O)[C@@H](CC(=O)Nc1ccccc1)C(C)(C)C)C(=O)NS(=O)(=O)C1CC1	concentration at 1 h [11]: 100 nM; solubility [9]: 45 mg/mL (≈ 52.6 mM); half-life [4]: > 5 h
3.45 h	8 ×10⁻⁶ cm/s	10 nM	3.5 nM	C=C[C@@H]1C[C@]1(NC(=O)[C@@H]1C[C@@H](Oc2cc(-c3csc(NC(C)C)n3)nc3c(Br)c(OC)ccc23)CN1C(=O)[C@@H](CC(=O)NC1CCCC1)C(C)(C)C)C(=O)O	bioavailability [12]: 47%; Vd [13]: 1.3 L/kg; clearance [14]: 22 mL/min/kg; half-life [15]: 1.4 h; Cmax (Rattus norvegicus [16]): 850 nM; AUC (Rattus norvegicus [17]): 2.1 µM·h; half-life [1]: 2.55 h; half-life [2]: 0.867 h; half-life [4]: 3.13 h; Papp B→A [5]: 10 ×10⁻⁶ cm/s
		2 nM	3 nM	C=C[C@@H]1C[C@]1(NC(=O)[C@@H]1C[C@@H](Oc2nccc3cc(OC)ccc23)CN1C(=O)[C@@H](NC(=O)OC(C)(C)C)C(C)(C)C)C(=O)NS(=O)(=O)C1CC1	
		8.7 nM	130 nM	C=C[C@@H]1C[C@]1(NC(=O)[C@@H]1C[C@@H](Oc2nccc3cc(OC)ccc23)CN1C(=O)[C@@H](CC(=O)NC(C)(C)C)C(C)(C)C)C(=O)NS(=O)(=O)C1CC1	
> 5 h	7.1 ×10⁻⁶ cm/s	0.8 nM	8.4 nM	C=C[C@@H]1C[C@]1(NC(=O)[C@@H]1C[C@@H](Oc2cc(OCC)nc3c(Br)c(OC)ccc23)CN1C(=O)[C@@H](CC(=O)NC(C)(C)C)C(C)(C)C)C(=O)NS(=O)(=O)C1CC1	solubility [9]: 83 mg/mL (≈ 99.4 mM)
		1.7 nM	64 nM	C=C[C@@H]1C[C@]1(NC(=O)[C@@H]1C[C@@H](Oc2nccc3cc(OC)ccc23)CN1C(=O)[C@@H](CC(=O)Nc1ccccc1)C(C)(C)C)C(=O)NS(=O)(=O)C1CC1	
> 5 h	3.9 ×10⁻⁶ cm/s	0.8 nM	6.5 nM	C=C[C@@H]1C[C@]1(NC(=O)[C@@H]1C[C@@H](Oc2cc(OCC)nc3c(Cl)cccc23)CN1C(=O)[C@@H](CC(=O)Nc1ccccc1)C(C)(C)C)C(=O)NS(=O)(=O)C1CC1	solubility [9]: 56 mg/mL (≈ 71.8 mM); half-life [4]: 2.67 h
		53 nM		C=C[C@@H]1C[C@]1(NC(=O)[C@@H]1C[C@@H](Oc2cc(-c3csc(NC(C)=O)n3)nc3cc(OC)ccc23)CN1C(=O)[C@@H](CC(=O)NC(C)(C)C)C(C)(C)C)C(=O)O	
		23 nM		C=C[C@@H]1C[C@]1(NC(=O)[C@@H]1C[C@@H](Oc2cc(-c3csc(NC(C)=O)n3)nc3cc(OC)ccc23)CN1C(=O)[C@@H](CC(=O)NC1CCCC1)C(C)(C)C)C(=O)O	
		13 nM		C=C[C@@H]1C[C@]1(NC(=O)[C@@H]1C[C@@H](Oc2cc(-c3csc(NC(C)=O)n3)nc3cc(OC)ccc23)CN1C(=O)[C@@H](NC(=O)OC(C)(C)C)C(C)(C)C)C(=O)O	
		140 nM		C=C[C@@H]1C[C@]1(NC(=O)[C@@H]1C[C@@H](Oc2cc(-c3csc(NC(C)=O)n3)nc3cc(OC)ccc23)CN1C(=O)[C@@H](OC(=O)NC(C)(C)C)C(C)(C)C)C(=O)O	
		13 nM		C=C[C@@H]1C[C@]1(NC(=O)[C@@H]1C[C@@H](Oc2cc(-c3csc(NC(C)=O)n3)nc3cc(OC)ccc23)CN1C(=O)[C@@H](CC(=O)Nc1ccccc1)C(C)(C)C)C(=O)O	
		2.6 nM		C=C[C@@H]1C[C@]1(NC(=O)[C@@H]1C[C@@H](Oc2cc(-c3csc(NC(C)=O)n3)nc3cc(OC)ccc23)CN1C(=O)[C@@H](NC(=O)NC(C)(C)C)C(C)(C)C)C(=O)O	
